Assay results published in US20040175763A1, “Crohn's disease antibody-binding peptide and method of examining crohn's disease” (priority 2001, published 2004).

Test system: Crohn's disease antibody
Test: Reaction inhibition test with one amino acid-substituted MAP peptides on CDP3 MAP plate (Example 6(2))
Format: binding, human
Details: inhibitor MAP peptide 100 μg/mL
Experimental: Referring to the amino acid sequence of CDP peptide, in order to determine the sequence necessary for the specific reactivity to Crohn's disease antibody, the following reaction inhibition test was performed using each of the one amino acid-substituted MAP peptides prepared as above as the reaction inhibitor.
More particularly, using the MAP plate prepared by immobilizing the MAP peptide of CDP3 (see Example 2(1)) as the antigen plate, the test was performed by 3 reaction steps. In the primary reaction, the Crohn's disease patient serum was diluted 100-fold with a sample diluent containing the one amino acid-substituted MAP peptide in a concentration of 100 μg/mL (0.1 M Tris-buffer containing 0.5 M sodium chloride, 1.5% casein, 2% normal goat serum and 0.2% Tween 20) and reacted at 25° C. for one hour. In the secondary reaction, 100 μL/well of the primary reaction mixture was added to the plate and reacted at 25° C. for one hour, after which the plate was washed 3 times. In the tertiary reaction, 100 μL/well of HRP-labeled anti-human IgG (Fc)-specific antibody diluted 5,000-fold in an enzyme-labeled antibody diluent (Tris buffer containing 0.14 M sodium chloride, 0.5% BAS, 5% normal goat serum and 0.05% Tween 20) was added to the plate, and reacted at 25° C. for 1 hour, followed by 3 rounds of washing. Detection was performed as in Example 2(1) to measure the reaction-inhibiting activity of the one amino acid-substituted MAP peptide.

A E G E A R Q S D G Q Y Q M (AEGEARQSDGQYQM) [CDP3-5]
reaction-inhibiting activity, Patient serum sample No. 2: +++ (+++: reaction-inhibiting activity = 70%)
reaction-inhibiting activity, Patient serum sample No. 7: +++ (+++: reaction-inhibiting activity = 70%)
reaction-inhibiting activity, Patient serum sample No. 8: +++ (+++: reaction-inhibiting activity = 70%)

A A G E L R Q S D G Q Y Q M (AAGELRQSDGQYQM) [CDP3-2]
reaction-inhibiting activity, Patient serum sample No. 2: +++ (+++: reaction-inhibiting activity = 70%)
reaction-inhibiting activity, Patient serum sample No. 7: +++ (+++: reaction-inhibiting activity = 70%)
reaction-inhibiting activity, Patient serum sample No. 8: +++ (+++: reaction-inhibiting activity = 70%)

A E G E L R Q S D G Q Y A M (AEGELRQSDGQYAM) [CDP3-13]
reaction-inhibiting activity, Patient serum sample No. 2: + (+: reaction-inhibiting activity between 30% and 50%)
reaction-inhibiting activity, Patient serum sample No. 7: +++ (+++: reaction-inhibiting activity = 70%)
reaction-inhibiting activity, Patient serum sample No. 8: ++ (++: reaction-inhibiting activity between 50% and 70%)

S E G E L R Q S D G Q Y Q M (SEGELRQSDGQYQM) [CPP3-1]
reaction-inhibiting activity, Patient serum sample No. 2: +++ (+++: reaction-inhibiting activity = 70%)
reaction-inhibiting activity, Patient serum sample No. 7: +++ (+++: reaction-inhibiting activity = 70%)
reaction-inhibiting activity, Patient serum sample No. 8: +++ (+++: reaction-inhibiting activity = 70%)

A E G E L R Q S A G Q Y Q M (AEGELRQSAGQYQM) [CDP3-9]
reaction-inhibiting activity, Patient serum sample No. 2: − (−: reaction-inhibiting activity = 30%)
reaction-inhibiting activity, Patient serum sample No. 7: + (+: reaction-inhibiting activity between 30% and 50%)
reaction-inhibiting activity, Patient serum sample No. 8: − (−: reaction-inhibiting activity = 30%)

A E G E L R Q S D G A Y Q M (AEGELRQSDGAYQM) [CDP3-11]
reaction-inhibiting activity, Patient serum sample No. 2: − (−: reaction-inhibiting activity = 30%)
reaction-inhibiting activity, Patient serum sample No. 7: + (+: reaction-inhibiting activity between 30% and 50%)
reaction-inhibiting activity, Patient serum sample No. 8: − (−: reaction-inhibiting activity = 30%)

A E G E L A Q S D G Q Y Q M (AEGELAQSDGQYQM) [CDP3-6]
reaction-inhibiting activity, Patient serum sample No. 2: +++ (+++: reaction-inhibiting activity = 70%)
reaction-inhibiting activity, Patient serum sample No. 7: +++ (+++: reaction-inhibiting activity = 70%)
reaction-inhibiting activity, Patient serum sample No. 8: +++ (+++: reaction-inhibiting activity = 70%)

A E G E L R Q A D G Q Y Q M (AEGELRQADGQYQM) [CDP3-8]
reaction-inhibiting activity, Patient serum sample No. 2: +++ (+++: reaction-inhibiting activity = 70%)
reaction-inhibiting activity, Patient serum sample No. 7: +++ (+++: reaction-inhibiting activity = 70%)
reaction-inhibiting activity, Patient serum sample No. 8: +++ (+++: reaction-inhibiting activity = 70%)

A E G A L R Q S D G Q Y Q M (AEGALRQSDGQYQM) [CDP3-4]
reaction-inhibiting activity, Patient serum sample No. 2: +++ (+++: reaction-inhibiting activity = 70%)
reaction-inhibiting activity, Patient serum sample No. 7: +++ (+++: reaction-inhibiting activity = 70%)
reaction-inhibiting activity, Patient serum sample No. 8: +++ (+++: reaction-inhibiting activity = 70%)

A E A E L R Q S D G Q Y Q M (AEAELRQSDGQYQM) [CDP3-3]
reaction-inhibiting activity, Patient serum sample No. 2: +++ (+++: reaction-inhibiting activity = 70%)
reaction-inhibiting activity, Patient serum sample No. 7: +++ (+++: reaction-inhibiting activity = 70%)
reaction-inhibiting activity, Patient serum sample No. 8: +++ (+++: reaction-inhibiting activity = 70%)

A E G E L R Q S D G Q A Q M (AEGELRQSDGQAQM) [CDP3-12]
reaction-inhibiting activity, Patient serum sample No. 2: +++ (+++: reaction-inhibiting activity = 70%)
reaction-inhibiting activity, Patient serum sample No. 7: +++ (+++: reaction-inhibiting activity = 70%)
reaction-inhibiting activity, Patient serum sample No. 8: +++ (+++: reaction-inhibiting activity = 70%)

A E G E L R A S D G Q Y Q M (AEGELRASDGQYQM) [CDP3-7]
reaction-inhibiting activity, Patient serum sample No. 2: − (−: reaction-inhibiting activity = 30%)
reaction-inhibiting activity, Patient serum sample No. 7: − (−: reaction-inhibiting activity = 30%)
reaction-inhibiting activity, Patient serum sample No. 8: − (−: reaction-inhibiting activity = 30%)
